{"source": "patent US11083723B2", "about": "“Use of roluperidone to treat negative symptoms and disorders, increase neuroplasticity, and promote neuroprotection” (Minerva Neurosciences, Inc., priority 2018, dated 2021)", "key": {"[1]": {"test_system": "BDNF release by primary hippocampal neurons", "assay": "BDNF release by primary hippocampal neurons, in situ ELISA", "format": "cell-based, rat", "details": "3 days incubation", "description": "Hippocampal neurons were plated in 96-well Nunc MaxiSorp surface polystyrene flat-bottom immunoplate precoated with poly-D-lysine during 30 min an anti-BDNF monoclonal antibody overnight at 4° C. at a density of 70,000 cells/well. […] At the end of drug treatment, cells were carefully washed with TBST (20 mM Tris-HCl (pH 7.6), 150 mM NaCl, and 0.05% (vol/vol) Tween 20). The plate was then incubated with the polyclonal anti-human BDNF antibody overnight and BDNF quantified.\nExperimental Protocol—In Situ ELISA on Primary Hippocampal Neurons Hippocampal Neuron Culture\nNewborn rats (Wistar rats, Janvier) were deeply anesthetized by hypothermia and decapitated. […] Cells were mechanically dissociated by 3 passages through a 10 ml pipette. Cells were then centrifuged at 515×g for 10 min at 4° C. […] Viable cells were counted in a Neubauer cytometer using the trypan blue exclusion test.\nHippocampal neurons were plated in 96-well Nunc MaxiSorp surface polystyrene flat-bottom immunoplate precoated with poly-D-lysine during 30 min (Sigma, Ref: P7886, batch: SLBS8705) an anti-BDNF monoclonal antibody overnight at 4° C. at a density of 70000 cells/well.\nAt the end of drug treatment, cells were carefully washed with TBST (20 mM Tris-HCl (pH 7.6), 150 mM NaCl, and 0.05% (vol/vol) Tween 20). The plate was then incubated with the polyclonal anti-human BDNF antibody overnight. The amount of specifically bound polyclonal antibody was then detected through the use of the anti-IgY-horseradish peroxidase tertiary antibody, which when exposed to the chromogenic substrate (TMB reagent; Promega), changes color in proportion to the amount of BDNF present in the sample. The color intensity was quantified by measuring the absorbance at 450 nm."}, "[2]": {"test_system": "GDNF release by primary rat astrocytes", "assay": "GDNF release by primary rat astrocytes, in situ ELISA", "format": "cell-based", "details": "5 days incubation", "description": "Experimental Protocol-In Situ ELISA on Primary Astrocytes Rat Primary Culture of Astrocytes Rat mixed glial cells were cultured as described by McCarthy et al. Primary rat glial cells were prepared from the cortical of newborn Wistar rats (1 day). Briefly, meninges and blood vessels of the mice cortex were removed and placed in ice-cold medium of Leibovitz (L15; PanBiotech, ref P04-27055, batch 4511117) containing 2% Penicillin-Streptomycin (PS; PanBiotech, ref P06-07100, batch 2110917) and 1% of bovine serum albumin (BSA; […] Cells were then submitted to a supplementary incubation of 15 min. at 37° C. in presence of deoxyribonuclease I (0.1 mg/mL Panbiotech, ref: P60-37780100, batch: H140508). Cells were then pelleted (5 min. at 1200 rpm) and trypsinization was stopped by adding DMEM (PanBiotech, Ref P04-03600, Batch 8420517) supplemented with 10% FCS (Fischer, Ref 10270106, batch 41A0940K), 1 mM of Na/pyruvate (PanBiotech, ref: P04-43100, batch 3470914). Cells suspension was mechanically dissociated and filtered through […] diameter nylon meshes (BD Falcon, Ref: 352340). The cells were collected by centrifugation at 1200 rpm/min for 10 min, resuspended in culture medium and then plated in culture flasks (Dutscher, ref: 690175). Cells were seeded at a density of 1.25×10^5 cells/cm^2 and culture in 5% CO2 at 37° C. Medium was changed 3 times per week. At confluency, astrocytes were plated in 96-well Nunc MaxiSorp surface polystyrene flat-bottom immunoplate precoated with poly-D-lysine during 30 min (Sigma, Ref: […], batch: SLBS8705) and an anti-GDNF monoclonal antibody overnight at 4° C. at a density of 30,000 cells/well. […] At the end of drug treatment, cells were carefully washed with TBST (20 mM Tris-HCl (pH 7.6), 150 mM NaCl, and 0.05% (vol/vol) Tween 20). The plate was then incubated with the polyclonal anti-human GDNF antibody overnight. The amount of specifically bound polyclonal antibody, which when exposed to chromogenic substrate (TMB reagent; Promega), changes color in proportion to the amount of GDNF present in the sample. The color intensity was quantified by measuring the absorbance at 450 nm. GDNF standards, ranging in concentration from 0 to 500 pg/mL were added in parallel wells in the same medium than hippocampal neurons."}, "sigma2 receptors": {"target": "sigma2 receptors (Homo sapiens, UniProt Q5BJF2)", "sequence (Q5BJF2 whole entry)": "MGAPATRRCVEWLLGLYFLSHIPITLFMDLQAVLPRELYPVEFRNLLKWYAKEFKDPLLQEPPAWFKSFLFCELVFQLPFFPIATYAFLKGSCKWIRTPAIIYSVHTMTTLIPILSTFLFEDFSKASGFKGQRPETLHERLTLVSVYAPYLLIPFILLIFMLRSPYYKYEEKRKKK", "assay": "Molecular binding profile, sigma2"}, "sigma1 receptors": {"target": "sigma1 receptors (Homo sapiens, UniProt Q99720)", "sequence (Q99720 whole entry)": "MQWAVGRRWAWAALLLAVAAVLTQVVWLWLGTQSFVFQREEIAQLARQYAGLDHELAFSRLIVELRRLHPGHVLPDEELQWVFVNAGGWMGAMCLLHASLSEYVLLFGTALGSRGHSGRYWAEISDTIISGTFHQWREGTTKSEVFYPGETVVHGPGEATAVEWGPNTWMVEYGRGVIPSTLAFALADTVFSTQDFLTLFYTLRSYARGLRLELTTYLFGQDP", "assay": "Molecular binding profile, sigma1"}, "cholinergic receptors": {"test_system": "cholinergic receptors", "assay": "Receptor affinity, cholinergic", "format": "binding"}, "[3]": {"test_system": "negative symptoms in schizophrenia", "assay": "Phase 2b clinical study, negative symptoms in schizophrenia", "format": "in vivo, human", "details": "both tested doses (32 mg and 64 mg)"}, "QT prolongation": {"test_system": "QT prolongation", "details": "patients treated with Compound (I); related to plasma levels of Compound (I) and metabolite BFB-520; cited from earlier work"}, "[4]": {"details": "modified release (MR) formulation of Compound (I) that reduces QT prolongation; cited from earlier work"}}, "note": "Where a name gives a salt, the structure may show the parent alone."}
{"smiles": "O=C(CN1CCC(CN2Cc3ccccc3C2=O)CC1)c1ccc(F)cc1", "note": "[Compound (I), 1H-Isoindol-1-one, 2-[[1-[2-(4-Fluorophenyl)-2-oxoethyl]-4-piperidinyl]methyl]-2,3-dihydro-, hydrochloride, hydrate (1:1:2)]", "values": [{"measurement": "BDNF release hippocampal neurons, % increase of control conditions", "setting": "[1]; 30 nM", "result": 11.0, "unit": "%"}, {"measurement": "BDNF release hippocampal neurons, % increase of control conditions", "setting": "[1]; 100 nM", "result": 14.9, "unit": "%"}, {"measurement": "BDNF release hippocampal neurons, % increase of control conditions", "setting": "[1]; 300 nM", "result": 27.5, "unit": "%"}, {"measurement": "BDNF release hippocampal neurons, % increase of control conditions", "setting": "[1]; 1 μM", "result": 24.3, "unit": "%"}, {"measurement": "GDNF release astrocytes, % increase of control conditions", "setting": "[2]; 3 nM", "result": 11.4, "unit": "%"}, {"measurement": "GDNF release astrocytes, % increase of control conditions", "setting": "[2]; 10 nM", "result": 13.8, "unit": "%"}, {"measurement": "GDNF release astrocytes, % increase of control conditions", "setting": "[2]; 30 nM", "result": 14.2, "unit": "%"}, {"measurement": "GDNF release astrocytes, % increase of control conditions", "setting": "[2]; 100 nM", "result": 14.8, "unit": "%"}, {"measurement": "GDNF release astrocytes, % increase of control conditions", "setting": "[2]; 300 nM", "result": 20.8, "unit": "%"}, {"measurement": "GDNF release astrocytes, % increase of control conditions", "setting": "[2]; 1 μM", "result": 17.5, "unit": "%"}, {"measurement": "Ki", "setting": "sigma2 receptors", "result": 8.2, "unit": "nM"}, {"measurement": "selectivity sigma2 versus sigma1 receptors", "setting": "sigma2 receptors; sigma2 versus sigma1", "result": 30, "unit": "fold"}, {"measurement": "Ki", "setting": "sigma1 receptors", "result": 254, "unit": "nM"}, {"measurement": "affinity for cholinergic receptors", "setting": "cholinergic receptors", "result": "no affinity"}, {"measurement": "benefit over placebo in improving negative symptoms in schizophrenia", "setting": "[3]", "result": "statistically significant benefit"}, {"measurement": "QT prolongation in patients", "setting": "QT prolongation", "result": "QT prolongation in patients treated with Compound (I) has been observed"}, {"measurement": "maximum plasma concentration (Cmax)", "setting": "[4]", "result": "below 80 ng/mL"}]}
